Reference: US8357350B2, “Annulus fibrosus detection in intervertebral discs using molecular imaging agents” (General Electric Company, priority 2009, dated 2013)

Tests used:
[1] = Absorbance and fluorescence spectra of FM fluorophores in solvents; type: physicochemical; conditions: for Em nm (MeOH): emission maximum in MeOH; for Em nm (PBS): emission maximum in PBS; for Ex nm (MeOH): excitation maximum in MeOH; for Ex nm (PBS): excitation maximum in PBS
Method: (§1) Absorbance and fluorescence spectra of the FM fluorophores were measured in PBS and absolute methanol (MeOH) using fiber-optic HR2000 (200-1100 nm) and USB2000FL (350-1000 nm) spectrometers (Ocean Optics, Dunedin, Fla.), respectively. Fluorescence excitation was provided by a 2 mW, 532 nm laser diode. The fluorescence and absorbance spectra of FORMULA II and FORMULA IA were collected in dimethyl sulfoxide (DMSO) and fetal bovine serum (FBS), as well as MeOH and PBS. The quantum yield of FORMULA II and FORMULA IA in DMSO, MeOH, FBS and PBS was measured by comparing the integrated fluorescence emission of the fluorophores in each solvent to the emission of Alexa Fluor 555 (Invitrogen) in PBS (quantum yield=10%) as a reference standard under conditions of matched absorbance at the excitation wavelength. The LogD of each FM fluorophore at pH 7.5 was calculated using Marvin 5.0.3 software (ChemAxon, Budapest, Hungary).

dorsal root ganglia [2] = test: FM fluorophore uptake, intraoperative fluorescence imaging; type: in vivo, mice and rats; conditions: 5 mg/kg mice, 0.5 mg/kg rats IP, 16 hours before imaging; signal normalized to muscle, vs vehicle control; further: key: +: Positive contrast was concluded if the nerve-to-muscle contrast ratio of FM fluorophore-injected animals was elevated relative to control animals
Method: (§2) Imaging was carried out at near infrared wavelenghts using a 400- to 700-nm “white” light (0.5 mW/cm^2) and a 725- to 775-nm NIR fluorescence excitation light (5 mW/cm^2). Fluorescence images were collected using exposure times ranging from 500 to 2000 msec. All images collected for comparison between vehicle-injected control animals and FM fluorophore-injected animals had the same exposure time and normalization. Color video images were collected on a separate optical channel using custom designed software. The excitation and emission LEDs and filter used for the FM fluorophores and Pam800 in the intraoperative imaging system are described as follows. For fluorescence excitation of FM 1-43, FM 2-10, FM 1-43FX and Formula IA, sixty 5-mm 470 nm LEDs ([…], Inc., Kyoto, Japan) fitted with 470±20 nm band pass (BP) excitation filters (Chroma Technology, Rockingham, Vt.) in custom holders were used, which produced a fluence rate on the imaging surface of 0.56 mW/cm^2. For fluorescence excitation of Formula II, FM 4-64, FM 4-64FX and FM 5-95, sixty 5-mm 535 nm LEDs fitted with 525±25 nm BP excitation filters were used, which produced a fluence rate on the imaging surface of 0.34 mW/cm^2. A 610±38 nm BP filter was used to detect fluorescence emission of FM 1-43, FM 2-10, Formula II, FM 1-43FX and Formula IA. To detect fluorescence emission of FM 4-64, FM 4-64FX and FM 5-95 a 720 nm long pass (LP) filter was used. For fluorescence excitation of Pam800, 348 5-mm 760 nm LEDs fitted with 764±17 nm BP excitation filters were used, which produced a fluence rate on the imaging surface of 8.73 mW/cm^2 and fluorescence emission was detected using a 824±24 nm BP emission filter. To assess the structure-activity relationship of the FM fluorophores, each molecule was administered at 5 mg/kg to mice and 0.5 mg/kg to rats (n=4 per group) in 10% DMSO and 90% PBS IP 16 hours before imaging with the intraoperative system. The fluorescence signal from the spinal cord, intervertebral discs, dorsal root ganglia, trigeminal ganglia, optic nerve, brain and femoral nerve were normalized to muscle signal in the same image. This normalization ratio was then compared between FM fluorophore-injected animals and vehicle-injected control animals.

intervertebral discs = test: as above; type: in vivo, mice and rats; on Uptake: Intervertebral Disc: key: +: Positive contrast was concluded if the nerve-to-muscle contrast ratio of FM fluorophore-injected animals was elevated relative to control animals
Method: as §2

trigeminal ganglia = test: as above; type: in vivo, mice and rats; conditions: 5 mg/kg mice, 0.5 mg/kg rats IP, 16 hours before imaging; signal normalized to muscle, vs vehicle control; further: key: +: Positive contrast was concluded if the nerve-to-muscle contrast ratio of FM fluorophore-injected animals was elevated relative to control animals
Method: as §2

dorsal root ganglia [3] = test: Histology and fluorescence microscopy of dorsal root ganglia; type: in vivo; conditions: rat, 0.5 mg/kg, 16 h post-IP
Method: Tissues from mice, rats and pig were preserved for microscopic assessment and localization of fluorescence signal. Tissues were extracted from the animal and placed in 2% paraformaldehyde in PBS for 2 to 4 hours before mounting in Tissue-Tek OCT compound (Fisher Scientific, Pittsburgh, Pa. ) and flash-freezing in liquid nitrogen. Each sample was cryo-sectioned (12 μm per slice); one slide was stained with hematoxylin and eosin (H&E) and a consecutive section was used for fluorescence microscopy. For fluorescence microscopy, serial sections were imaged on a Nikon TE 300 microscope system equipped with a mercury excitation source (Chiu Technical Corporation, Kings Park, N.Y.), Orca-ER 12-bit camera (Hamamatsu, Bridgewater, N.J.), and IPLab software (BD Biosciences, Rockville, Md.), using the following excitation and emission filters combinations. To obtain fluorescence images of FM 4-64, the mercury light source was passed through a 540±15 nm BP excitation filter, 700 nm dichroic beam splitter and 720 nm LP emission filter. To obtain fluorescence images of FM 1-43FX and Formula IA, the mercury light source was passed through a 460±25 nm BP excitation filter, 505 nm dichroic beam splitter and a 610±38 nm BP emission filter. Exposure times were adjusted between 5 and 2000 ms for fluorescence images.

[4] = Fluorescence quantum yield versus Alexa Fluor 555 reference; type: physicochemical; conditions: highest in FBS among DMSO, MeOH, PBS
Method: as §1

Compound | Em nm (MeOH) [1] | Em nm (PBS) [1] | Ex nm (MeOH) [1] | Ex nm (PBS) [1] | blue shift of emission maximum in FBS ([1]; FBS compared to DMSO, MeOH or PBS) | fluorescence quantum yield, times higher in FBS [4] | Uptake: Dorsal Root Ganglia (dorsal root ganglia [2]) | Uptake: Intervertebral Disc (intervertebral discs; 5 mg/kg mice, 0.5 mg/kg rats IP, 16 hours before imaging, signal normalized to muscle, vs vehicle control) | contrast in the intervertebral discs (intervertebral discs; IP administration to mice and rats) | Uptake: Trigeminal Ganglia (trigeminal ganglia) | microscopic localisation of fluorescence in dorsal root ganglion (dorsal root ganglia [3])
CCN(CC)c1ccc(C=CC=CC=Cc2cc[n+](CCC[N+](C)(C)C)cc2)cc1.[Br-].[Br-] [FM 5-95] | 809 nm | 809 nm | 542 nm | 490 nm |  |  | + |  |  | + | 
CCCCN(CCCC)c1ccc(/C=C/C=C/C=C/c2cc[n+](CCC[N+](CC)(CC)CC)cc2)cc1.[Br-].[Br-] [Formula II, 4-((1 E,3E,5E)-6-(4-(dibutylamino)phenyl)hexa-1,3,5-trienyl)-1-(3-(triethylammonio)propyl)pyridinium dibromide] | 813 nm | 808 nm | 549 nm | 519 nm | over 100 nm | 10 times |  |  |  | + | 

More lines, main results first:

Em nm (MeOH) [1] | Em nm (PBS) [1] | Ex nm (MeOH) [1] | Ex nm (PBS) [1] | blue shift of emission maximum in FBS ([1]; FBS compared to DMSO, MeOH or PBS) | fluorescence quantum yield, times higher in FBS [4] | Compound | Uptake: Dorsal Root Ganglia (dorsal root ganglia [2]) | Uptake: Intervertebral Disc (intervertebral discs; 5 mg/kg mice, 0.5 mg/kg rats IP, 16 hours before imaging, signal normalized to muscle, vs vehicle control) | contrast in the intervertebral discs (intervertebral discs; IP administration to mice and rats) | Uptake: Trigeminal Ganglia (trigeminal ganglia) | microscopic localisation of fluorescence in dorsal root ganglion (dorsal root ganglia [3])
624 nm | 631 nm | 509 nm | 493 nm |  |  | CCCCN(CCCC)c1ccc(/C=C/c2cc[n+](CCC[N+](CC)(CC)CC)cc2)cc1.[Br-].[Br-] [FM 1-43] | + | + | positive contrast | + | 
622 nm | 628 nm | 507 nm | 490 nm |  |  | CCN(CC)c1ccc(/C=C/c2cc[n+](CCC[N+](CC)(CC)CC)cc2)cc1.[Br-].[Br-] [FM 2-10] |  |  |  | + | 
811 nm | 808 nm | 546 nm | 507 nm |  |  | CCN(CC)c1ccc(/C=C/C=C/C=C/c2cc[n+](CCC[N+](CC)(CC)CC)cc2)cc1.[Br-].[Br-] [FM 4-64] | + |  |  | + | significant fluorescence intensity was seen in the dense cellular regions
